As a reminder, the IC50 is the concentration at which inhibition is half-maximal. Higher therefore signals lower potency. What is called Kd is a measure of binding affinity in units of concentration. Low readings indicate higher affinity, high ones lower affinity.

One test has as its system human melanoma A375P. The test is described as follows: Methylene blue growth inhibition assay (Assay 2), A375P. It counts as cell-based. The note with it: 72 h, B-Raf V599E, Ras wt, Assay 2, 3 days. How it is done: (§1) Methylene Blue Growth Inhibition Assay (Assay 2)
(§2) Normal human foreskin fibroblasts (HFF), human melanoma (A375P, SKMEL2, SKMEL3) colon carcinoma (Colo 205) were cultured in the following growth media: A375P, Colo 205, Roswell Park Memorial Institute (RPMI) 1640 (Life Technologies 22400-089) containing 10% fetal bovine serum (FBS); HFF, Dulbecco's modified Eagle Medium (DMEM) (Life Technologies 12320-032) containing 10% FBS; SKMEL2 and SKMEL3, Minimum Essential Medium (MEM, Life Technologies 11095-080) containing 1× non-essential amino acids (Life Technologies 11140-050) and 10% FBS. Cells were harvested using 0.25% trypsin/1 mM, EDTA, counted using a haemocytometer, and plated in […] of the appropriate media, at the following densities, in a 96-well tissue culture plate (Falcon 3075): […] and A375P, 5,000 cells/well; all other cell lines, 10,000 cells/well. The next day, compounds were diluted in RPMI containing 100 micrograms/ml gentamicin, at twice the final required concentration, from 10 mM stock solutions in dimethyl sulphoxide (DMSO). One hundred microliters per well of these dilutions were added to the 100 microliters of media currently on the cell plates. RPMI containing 0.6% DMSO was added to control wells. […] Optical density at 620 nm was measured on a microplate reader. Percent inhibition of cell growth was calculated relative to vehicle treated control wells. […]

The test system of a further test is human melanoma SKMEL3. Put plainly: Methylene blue growth inhibition assay (Assay 2), SKMEL3. It counts as cell-based. Particulars: SK-MEL3, 72 h, B-Raf V599E, Ras wt, Assay 2, 3 days. How it is done: as §1, §2
Test [1] relates to colon carcinoma (Colo 205). Put plainly: Methylene blue growth inhibition assay (Assay 2), Colo205. It counts as cell-based. Particulars: Homo sapiens, COLO 205, 72 h; Colorectal cancer; B-Raf V599E, Ras wt; Assay 2, 3 days. How it is done: as §1, §2
In another test the test system is human melanoma SKMEL2. Put plainly: Methylene blue growth inhibition assay (Assay 2), SKMEL2. It counts as cell-based. Particulars: SK-MEL-2, 72 h, B-Raf wt, [Q61R]N-Ras, Assay 2, 3 days. How it is done:
as §1, §2

The subject of test [2] is human colon carcinoma (Colo 201) cells. Put plainly: XTT 72 hr growth inhibition (Assay 3), Colo201. It counts as cell-based. Particulars: Colorectal cancer, B-Raf ND, Ras ND, Assay 3, 72 hr. How it is done:
XTT 72 hr Growth Inhibition Protocol for Mammalian Cultured Cells (Assay 3)
Human diploid foreskin fibroblasts (HFF) or human colon carcinoma (Colo 201) cells were grown in Dulbecco's modified Eagle's medium (DMEM) (Invitrogen/Life Technologies) containing 10% fetal bovine serum (FBS) and the antibiotics penicillin (100 Units/ml) and streotomycin (100 micrograms/ml) (Invitrogen/Life Technologies). Growth was at 37° C. in humidified 5% CO2 incubators in 75 cm^2 plastic flasks. Cells were harvested using 0.25% trypsin/1 mM ethylenediaminetetraacetic acid (EDTA), resuspended in growth medium, and counted using a hemocytometer. Flat-bottomed 96-well plates were seeded with 2×10^3 cells/well in a volume of 200 ul from trypsinized exponentially growing cultures. To “blank” wells, growth medium was added with no additions. Cells were incubated overnight to permit attachment.
Next day, medium from wells that contained cells was replaced with 180 microliters of fresh medium. Appropriate dilutions of test compounds were added to the wells from stock soloutions of compound dissolved in dimethyl sulfoxide (DMSO); final DMSO concentration in all wells was 0.2%. […] Absorbance at 450 nm was then determined using a 96-well UV plate reader (Molecular Devices). Under these conditions, absorbance of untreated control cells at 450 nm was at least 1.0 optical density unit/ml. […]

A further test deals with B-Raf (Homo sapiens, UniProt P15056). The test is described as follows: Fluorescence anisotropy kinase binding assay (Assay 1). From the text:
Fluorescence Anisotropy Kinase Binding Assay
The concentration of kinase enzyme should preferably be ≧1×Kf. The concentration of fluorescent ligand required will depend on the instrumentation used, and the fluorescent and physicochemical properties. The concentration used must be lower than the concentration of kinase enzyme, and preferably less than half the kinase enzyme concentration. A typical protocol is:
All compounds are serially diluted in DMSO, then by a one step dilution into buffer of comparison, 50 mM HEPES, […] pH7.5, 1 mM CHAPS, 10 mM MgCL2, for the assay.
B-Raf Enzyme concentration: 1 nM
Fluorescent ligand concentration: 0.5 nM
Test compound concentration: 0.5 nM-100 uM
Components incubated in 10 ul final volume in LJL HE 384 type B black microtitre plate until equilibrium reached (Over 3 h, up to 30 h)
Fluorescence anisotropy read in an LJL Acquest fluorescence reader.
• Ki=dissociation constant for inhibitor binding • Kf=dissociation constant for fluorescent ligand binding
The fluorescent ligand is the following compound:
which is derived from 5-[2-(4-aminomethylphenyl)-5-pyridin-4-yl-1H-imidazol-4-yl]-2-chlorophenol and rhodamine green.
A general note: Polarisation of emitted light reports the rotation of a fluorescent probe.

For test [3], the system named is Normal human foreskin fibroblasts (HFF). The test is described as follows: Methylene blue growth inhibition assay (Assay 2), HFF. Particulars: Fibroblast, 72 h, B-Raf wt, Ras wt, Assay 2, 3 days. It counts as cell-based. How it is done: as §1, §2

The structures appear in SMILES notation.

Sequence of B-Raf (P15056 whole entry): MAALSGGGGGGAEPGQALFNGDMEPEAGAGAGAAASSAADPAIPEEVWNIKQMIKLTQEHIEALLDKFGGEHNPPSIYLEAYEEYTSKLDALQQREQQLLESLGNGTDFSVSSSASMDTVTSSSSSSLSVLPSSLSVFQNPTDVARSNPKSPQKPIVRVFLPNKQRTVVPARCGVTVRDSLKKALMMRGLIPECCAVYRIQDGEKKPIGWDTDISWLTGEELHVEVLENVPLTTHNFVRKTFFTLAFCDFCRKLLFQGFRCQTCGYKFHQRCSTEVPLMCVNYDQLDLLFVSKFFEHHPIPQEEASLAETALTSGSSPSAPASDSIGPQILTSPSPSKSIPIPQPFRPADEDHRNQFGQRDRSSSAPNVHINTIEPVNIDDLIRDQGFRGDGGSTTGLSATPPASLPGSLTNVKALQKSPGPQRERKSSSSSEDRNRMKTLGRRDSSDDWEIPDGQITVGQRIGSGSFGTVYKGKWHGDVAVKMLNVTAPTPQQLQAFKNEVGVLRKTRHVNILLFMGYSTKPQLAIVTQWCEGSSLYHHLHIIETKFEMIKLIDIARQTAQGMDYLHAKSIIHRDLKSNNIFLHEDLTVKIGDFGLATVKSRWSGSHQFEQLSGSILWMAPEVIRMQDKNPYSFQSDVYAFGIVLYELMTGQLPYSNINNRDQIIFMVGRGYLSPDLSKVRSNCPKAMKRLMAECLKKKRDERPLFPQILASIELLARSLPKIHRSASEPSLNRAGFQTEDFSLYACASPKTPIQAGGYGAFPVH

With `O=C(c1cc(-c2ccc3c(c2)CCC3=NO)c(-c2ccncc2)o1)N1CCC(N2CCCC2)CC1` [Example 20, 5-{2-Pyridin-4-yl-5-[1-(4-pyrrolidin-1-yl-piperidin-1-yl)-methanoyl}-furan-3-yl}-indan-1-one oxime], the IC50 with human melanoma A375P was 310 nM; in the test with human melanoma SKMEL3, 460 nM; in test [1], 320 nM; in the test with human melanoma SKMEL2 it was 1900 nM; in test [2], 800 nM; in test [3] it was more than 30000 nM. Moreover, the Kd on B-Raf was 0.4 nM.

(Values after patent publication US7297693B2, “Nitrogen-containing heterocyclic compounds and their use as Raf inhibitors” (SmithKline Beecham P.L.C., priority 2001, dated 2007).)
